Columns and labels:
[1] = biological target: T1, EHMT1 (Homo sapiens, UniProt Q9H9B1); assay: EHMT1 enzyme assay on peptide substrate (EHMT1 PEP); type: biochemical; details: Table VI; read-out: EHMT1 PEP IC50
T1 sequence (Q9H9B1 1-1298): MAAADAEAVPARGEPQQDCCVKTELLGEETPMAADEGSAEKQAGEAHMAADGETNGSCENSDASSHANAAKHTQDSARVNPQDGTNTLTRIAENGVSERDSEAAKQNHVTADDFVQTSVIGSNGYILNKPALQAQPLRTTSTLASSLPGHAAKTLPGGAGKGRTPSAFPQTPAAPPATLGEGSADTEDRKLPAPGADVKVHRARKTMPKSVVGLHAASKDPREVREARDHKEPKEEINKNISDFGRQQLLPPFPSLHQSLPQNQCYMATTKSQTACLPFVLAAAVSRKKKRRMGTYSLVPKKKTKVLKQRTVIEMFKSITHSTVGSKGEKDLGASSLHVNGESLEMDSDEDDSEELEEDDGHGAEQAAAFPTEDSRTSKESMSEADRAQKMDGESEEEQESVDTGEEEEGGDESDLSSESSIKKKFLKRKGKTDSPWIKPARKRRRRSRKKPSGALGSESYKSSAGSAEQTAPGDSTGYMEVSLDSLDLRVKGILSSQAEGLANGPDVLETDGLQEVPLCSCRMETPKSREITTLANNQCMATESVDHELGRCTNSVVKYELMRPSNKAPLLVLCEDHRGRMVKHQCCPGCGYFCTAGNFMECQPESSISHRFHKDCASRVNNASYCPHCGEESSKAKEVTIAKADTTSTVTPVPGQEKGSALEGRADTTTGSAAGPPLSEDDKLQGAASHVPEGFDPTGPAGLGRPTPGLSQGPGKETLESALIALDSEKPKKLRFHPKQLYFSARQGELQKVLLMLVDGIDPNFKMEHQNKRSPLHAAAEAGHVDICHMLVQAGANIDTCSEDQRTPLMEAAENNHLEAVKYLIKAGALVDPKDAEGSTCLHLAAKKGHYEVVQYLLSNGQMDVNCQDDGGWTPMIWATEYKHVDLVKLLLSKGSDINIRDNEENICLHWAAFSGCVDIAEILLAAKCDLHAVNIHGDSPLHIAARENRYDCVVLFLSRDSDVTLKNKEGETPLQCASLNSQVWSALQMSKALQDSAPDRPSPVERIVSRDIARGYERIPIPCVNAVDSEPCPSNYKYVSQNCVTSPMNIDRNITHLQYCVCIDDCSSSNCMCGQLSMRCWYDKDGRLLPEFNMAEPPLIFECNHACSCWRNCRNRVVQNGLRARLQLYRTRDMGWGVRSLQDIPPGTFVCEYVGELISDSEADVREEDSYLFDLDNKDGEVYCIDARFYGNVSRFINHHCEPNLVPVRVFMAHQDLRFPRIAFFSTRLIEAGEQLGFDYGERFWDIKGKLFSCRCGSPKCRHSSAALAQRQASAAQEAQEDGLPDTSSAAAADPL

[2] = biological target: T2, human EHMT2 913-1193 (Homo sapiens, UniProt Q96KQ7); assay: EHMT2 enzyme assay on histone peptide substrate (EHMT2 PEP); type: biochemical; details: Table VI; read-out: EHMT2 PEP IC50
T2 construct: recombinant purified human EHMT2 913-1193, Viva; purchased Viva
T2 sequence (Q96KQ7 913-1193): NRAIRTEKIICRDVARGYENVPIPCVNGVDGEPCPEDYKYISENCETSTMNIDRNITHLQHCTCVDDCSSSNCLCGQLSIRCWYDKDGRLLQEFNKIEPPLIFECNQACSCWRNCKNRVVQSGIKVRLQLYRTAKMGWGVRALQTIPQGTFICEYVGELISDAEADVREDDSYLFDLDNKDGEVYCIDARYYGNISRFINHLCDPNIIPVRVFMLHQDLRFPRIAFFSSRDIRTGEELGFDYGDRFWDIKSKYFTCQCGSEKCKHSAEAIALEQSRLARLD
In short: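 10-pt 3-fold series, 50 μM top final, 2% DMSO; 30 min preinc w/ 0.031 nM enzyme; pH 7.5 Bicine/TCEP buffer; ^3H-SAM + biotin-histone peptide, 60 min RT; SAM quench; streptavidin Flashplate capture, TopCount.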

| SMILES | IC50 [1] [µM] | IC50 [2] [µM] |
| --- | --- | --- |
| CNc1cc(C)nc(Nc2cc(OCCCN3CCCC3)c3nc(C)cn3c2)n1 [Compound 616] | 0.1 to 1 | 1 to 10 |
| CNc1cc(C)nc(Nc2cc(OCCCN3CCCC3)c3nccn3c2)n1 [Compound 618] | 0.1 to 1 | 1 to 10 |
| CNc1cc(C)nc(Nc2cc(OCCCN3CCCC3)c3oncc3c2)n1 [Compound 793] | > 10 | > 10 |
| COc1ccc(Nc2nn(C)c3cnccc23)cc1OCCCN1CCCC1 [Compound 794] | > 10 | > 10 |
| COc1cnc(Nc2nn(C)c3cnccc23)cc1OCCCN1CCCC1 [Compound 795] | > 10 | > 10 |
| COc1ccc(Nc2cc(C)[nH]n2)cc1OCCCN1CCCC1 [Compound 796] | > 10 | > 10 |
| COc1ccc(Nc2cc(C)n(C)n2)cc1OCCCN1CCCC1 [Compound 797] | > 10 | > 10 |
| COc1cnc(Nc2nccc3nccn23)cc1OC[C@@H]1CCNC1 [Compound 801] | > 10 | > 10 |
| COc1cc(NC2CCOCC2)ncc1OCC1CCNC1 (stereo not drawn) [Compound 806] | 1 to 10 | 1 to 10 |
| COc1cc(N(C)C2CCOCC2)ncc1OCC1CCNC1 (stereo not drawn) [Compound 808] | 1 to 10 | > 10 |
| COc1cc2c(C)nc(N3CCCCC3)nc2cc1OCCCN1CCCC1 [Compound 811] | > 10 | > 10 |
| CNc1cc(C)nc(Nc2ccc(OC)c(CN[C@H]3CCNC3)c2)n1 [Compound 813] | 0.1 to 1 | 1 to 10 |
| CNc1cc(C)nc(Nc2ccc(OC)c(CN[C@@H]3CCNC3)c2)c1 [Compound 814] | 1 to 10 | 1 to 10 |
| COc1cc2c(C3CCOCC3)cc(=O)[nH]c2cc1OCCCN1CCCC1 [Compound 822] | > 10 | > 10 |
| CNc1cc(CC2CCOCC2)c2cc(OC)c(OCCCN3CCCC3)cc2n1 [Compound 823] | < 0.1 | < 0.1 |
| COc1cc2c(C3CCOCC3)cc(N3CCCCC3)nc2cc1OCCCN1CCCC1 [Compound 824] | 0.1 to 1 | 0.1 to 1 |
| COc1cc2c(C3CCOCC3)cc(N(C)C)nc2cc1OCCCN1CCCC1 [Compound 825] | 0.1 to 1 | 0.1 to 1 |
| CNc1cc(C2CCN(CCC(F)(F)F)CC2)c2cc(OC)c(OCCCN3CCCC3)cc2n1 [Compound 832] | < 0.1 | < 0.1 |
| CNc1cc(C2CCN(CC(F)(F)F)CC2)c2cc(OC)c(OCCCN3CCCC3)cc2n1 [Compound 833] | < 0.1 | < 0.1 |

Results, then the molecule that gave them:

| IC50 [1] [µM] | IC50 [2] [µM] | SMILES |
| --- | --- | --- |
| < 0.1 | 0.1 to 1 | CCN1CC(COc2cc(Nc3nc(C)cc4[nH]ccc34)ncc2OC)C1 [Compound 613] |
| < 0.1 | 0.1 to 1 | COc1cc2c(C3CCN(C)CC3)cc(C#N)nc2cc1OCCCN1CCCC1 [Compound 790] |
| < 0.1 | 0.1 to 1 | CNc1cc(C)nc(Nc2cnc(OC)c(OC[C@@H]3CCN(C4CCC4)C3)c2)n1 [Compound 798] |
| < 0.1 | < 0.1 | COc1ccc(Nc2nc(C)cc(NC(C)C)n2)cc1OC[C@@H]1CCNC1 [Compound 800] |
| < 0.1 | < 0.1 | CNc1cc(C2CCOCC2)c2cc(OC)c(OC[C@@H]3CCNC3)cc2n1 [Compound 802] |
| < 0.1 | 0.1 to 1 | CNc1cc(C2CCOCC2)c2cc(OC)c(OC[C@@H]3CCN(C)C3)cc2n1 [Compound 803] |
| < 0.1 | < 0.1 | CNc1cc(C2CCN(C(C)=O)CC2)c2cc(OC)c(OCCCN3CCCC3)cc2n1 [Compound 809] |
| < 0.1 | 0.1 to 1 | COc1cc2c(C)cc(N3CCCCC3)nc2cc1OCCCN1CCCC1 [Compound 810] |
| < 0.1 | < 0.1 | COc1cc2c(C3CCN(C)CC3)cc(N3CCCCC3)nc2cc1OCCCN1CCCC1 [Compound 812] |
| < 0.1 | < 0.1 | CNc1cc(C2CCCCC2)c2cc(OC)c(OCCCN3CCCC3)cc2n1 [Compound 816] |
| < 0.1 | < 0.1 | CNc1cc(C(C)C)c2cc(OC)c(OCCCN3CCCC3)cc2n1 [Compound 817] |

— patent publication US20210198277A1, “AMINE-SUBSTITUTED ARYL OR HETEROARYL COMPOUNDS” (Epizyme, Inc., priority 2016, published 2021)
